Consider nine compounds from US20250144069A1, “BILOBALIDE DERIVATIVE COMPOUNDS FOR TREATING NEUROLOGICAL DISEASES AND CANCERS” (The Chinese University of Hong Kong, priority 2023, published 2025).

Broadly, the viability is a read-out of living cells in per cent, often relative to untreated cells.

Common to all, as to type: cell-based, human
A short description of data set [1]: Single-dose CCK-8 cell viability screening (adherent cells). Conditions: average of A549 and Jurkat % viability, 50 uM, 48 h; for viability at 50 µM: Homo sapiens. Here is the method:
(§1) In this example, the anti-cancer properties of the BB analogues described in Table 1d were evaluated. Single-dose screening approach is used for initial testing to assess the cytotoxic effect of the BB analogues (also referred to as ‘BB compounds’) on Jurkat cells (human T cell leukaemia cells) and A549 cells (human lung cancer cells).
(§2) Method for Adherent Cells (A549 Cells)
(§3) In this example, 5000 cells/100 uL were seeded in 96-well plates and incubate at 37° C.+5% CO2 overnight. Media were replaced with 100 uL of 50 uM compound per well in 6 replicates. The following controls were prepared.
(§4) Blank control: 100 uL 0.1% DMSO in media with no cells per well.
(§5) Positive control: 100 uL of 10 uM 5-flurouracil per well.
(§6) Negative control: 100 uL of 0.1% DMSO in media per well.
(§7) Each 96-well plate included 7 compounds and the complete set of controls (in 6 replicates).
(§8) Cells were incubated at 37° C.+5% CO2 for 46 hours. 10 uL of CCK8 solution was added to each well. Cells were then incubated at 37° C.+5% CO2 for 2 hours. Absorbance at 450 nm was measured using a multiplate reader.
(§9) Viability was calculated using the equation: […]
(§10) The benchmark in Table 2 was used to define the activities of each compound.

In another data set the test system is A549 cells. The description is as above. The note with it: for viability at 50 µM: Homo sapiens, A549, 48 h, read-out: % Viability (50 uM, 48 h) A549. Here is the method: as §1, §2, §3, §4, §5, §6, §7, §8, §9, §10
Another data set relates to Jurkat cells. Nature of the data set: Single-dose CCK-8 cell viability screening (suspension cells). The note with it: for viability at 50 µM: Homo sapiens, Jurkat, 48 h. Here is the method:
as §1
Method for Suspension Cells (Jurkat Cells)
5000 cells/90 uL were seeded in 96-well plates. 10 uL of 500 uM compound (10×) was added to each well in 6 replicates. The following controls were prepared.
Blank control: 10 uL 1% DMSO in media with no cells per well.
Positive control: 10 uL of 100 uM 5-flurouracil (10×) per well.
Negative control: 10 uL of 1% DMSO in media (10×) per well.
Each 96-well plate included 7 BB analogues and the complete set of controls (in 6 replicates).
as §8, §9, §10

The mark [2] stands for this setting: Jurkat cells, 50 uM, CCK-8, read-out: % Viability (50 uM, 48 h) Jurkat.
[3] abbreviates: read-out: % Viability (50 uM, 48 h) Jurkat.

Like-named read-outs stand apart in the source and are kept apart here.

Regarding `C=C(C)[C@@]1(C)C[C@@H]2OC(=O)C[C@@]23C(=O)O[C@@H]2N(c4ccccc4)NC(=O)[C@H](OC(C)=O)[C@]213` [XBB-075], the viability at 50 µM in data set [1] (A549, 48 h) was determined as 84%; with A549 cells (A549 cells, 50 uM, 48 h, CCK-8) it was 67.4%; in the data set on Jurkat cells (setting [2]), 101%.
For `CC(=O)O[C@H]1C(=O)NC(N)=N[C@H]2OC(=O)[C@]34CC(=O)O[C@H]3C=C(C(C)(C)C)[C@@]214` [XBB-073] the same measures were 86.5%, 66.5% and 107%.
Regarding `CC(C)(C)[C@]1(O)C[C@@H]2OC(=O)C[C@@]23C(=O)O[C@@H]2N(c4ccc(N)cc4)C(=O)[C@H](OC(=O)c4ccccc4)[C@]213` [XBB-037′], the “Average (%)” value in data set [1] is given as 104.22%. For the same compound, the “% Viability (50 uM, 48 h) A549” value in the data set on A549 cells (A549 cells, 50 uM, 48 h, CCK-8) is on record as 110.02%. Also, the “% Viability (50 uM, 48 h) Jurkat” value with Jurkat cells (Jurkat cells, 50 uM, CCK-8, 50 µM) was determined as 98.42%.
Turning to `CC(C)(C)[C@]1(O)C[C@@H]2OC(=O)C[C@@]23C(=O)O[C@@H]2N(c4ccc(N5CCOCC5)cc4)C(=O)[C@H](O)[C@]213` [XBB-042, (3aS,5aS,8R,8aS,9R,10aS)-9-(tert-butyl)-8,9-dihydroxy-6-(4-morpholinophenyl)tetrahydro-4H,9H-furo [3″,2″:2′,3′]cyclopenta [1′,2′:3,4]furo [2,3-b]pyrrole-2,4,7(3H,8H)-trione], the viability at 50 µM amounted to 96.7% in data set [1] (A549, 48 h); 95.6% with A549 cells; 97.8% in the data set on Jurkat cells (setting [3]).
As to `CC(C)(C)[C@]1(O)C[C@@H]2OC(=O)C[C@@]23C(=O)O[C@@H]2N(c4cc(F)cc(F)c4)C(=O)[C@H](OC(=O)c4ccccc4)[C@]213` [P-19, (3aS,5aS,8R,8aS,9R,10aS)-9-(tert-butyl)-9-hydroxy-2,4,7-trioxo-6-(3,5-difluoro-phenyl)octahydro-4H,9H-furo [3″,2″:2′,3′]cyclopenta [1′,2′:3,4]furo [2,3-b]pyrrol-8-yl benzoate], the viability at 50 µM in data set [1] (A549, 48 h) is 60.2%; with A549 cells (A549 cells, 50 uM, 48 h, CCK-8), 50.2%; in the data set with Jurkat cells (setting [2]), 70.2%.
For the compound `CC(=O)O[C@H]1C(=O)N(CCn2cc3ccccc3c2C)[C@H]2OC(=O)[C@]34CC(=O)O[C@H]3C=C(C(C)(C)C)[C@@]214` [XBB-054], the viability at 50 µM was found to be 90.9% in data set [1] (A549, 48 h); 88.8% with A549 cells (A549 cells, 50 uM, 48 h, CCK-8); 93% in the data set with Jurkat cells (setting [2]).
For the compound `CC(C)(C)[C@]1(O)C[C@@H]2OC(=O)C[C@@]23C(=O)O[C@@H]2NC(=O)[C@H](OC(=O)c4ccccc4)[C@]213` [XBB-004, (3aS,5aS,8R,8aS,9R,10aS)-9-(tert-butyl)-9-hydroxy-2,4,7-trioxooctahydro-4H,9H-furo[3″,2″:2′,3′]cyclopenta[1′,2′:3,4]furo[2,3-b]pyrrol-8-yl benzoate], the viability at 50 µM in data set [1] was found to be 96.7%; in the data set with A549 cells, 98.5%; with Jurkat cells (setting [3]), 95%.
`Cc1cccc(N2C(=O)[C@H](OC(=O)c3ccccc3)[C@@]34[C@@H]2OC(=O)[C@@]32CC(=O)O[C@H]2C[C@@]4(O)C(C)(C)C)c1` [P-33, (3aS,5aS,8R,9R,10aS)-9-(tert-butyl)-9-hydroxy-2,4,7-trioxo-6-(3-methylphenyl)octahydro-4H,9H-furo [3″,2″:2′,3′]cyclopenta [1′,2′:3,4]furo [2,3-b]pyrrol-8-yl benzoate]: the viability at 50 µM in data set [1] (A549, 48 h) is 63.5%; in the data set on A549 cells (A549 cells, 50 uM, 48 h, CCK-8) it was 61.1%; with Jurkat cells (setting [2]), 66%.
In the case of `CC(C)(C)[C@]1(O)C[C@@H]2OC(=O)C[C@@]23C(=O)O[C@@H]2N(CCC4CCNCC4)C(=O)C(OC(=O)c4ccccc4)[C@]213` (stereo in doubt) [XBB-024, 4-(2-((3aS,5aS,8S,8aS,9R,10aS)-8-(benzoyloxy)-9-(tert-butyl)-9-hydroxy-2,4,7-trioxohexahydro-4H,9H-furo [3″,2″:2′,3′]cyclopenta [1′,2′:3,4]furo[2,3-b]pyrrol-6(5aH)-yl)ethyl)piperidin-1-ium chloride], the viability at 50 µM in data set [1] (A549, 48 h) came out at 96.2%; in the data set with A549 cells (A549 cells, 50 uM, 48 h, CCK-8), 94.7%; with Jurkat cells (setting [2]) it was 97.8%.
